Results as given in patent US20230322846A9, “NEUROACTIVE STEROIDS AND THEIR METHODS OF USE” (SAGE THERAPEUTICS, INC., priority 2018, published 2023).
pIC50: −log10 of the molar value.

Each compound was assayed against [35S]-TBPS binding, rat brain cortical membranes (assay: Steroid inhibition of [35S]-TBPS binding). Settings: 3 nM [35S]-TBPS, in the presence of 5 mM GABA.
Method in brief: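 Rat cortical P2 membranes incubated 90 min at room temperature with 3 nM [35S]-TBPS, […] and test compound (0.5% DMSO final) in NaCl/Na–K phosphate pH 7.4; nonspecific binding with […]. Filter-bound radioactivity counted; IC50 and Imax from nonlinear fits, mean ± SEM.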

C[C@@H](Cn1cc(C#N)cn1)[C@H]1CC[C@H]2[C@@H]3CC[C@@H]4C[C@](C)(O)CC[C@@H]4[C@H]3CC[C@]12C [Example 51, 1-((R)-2-((3R,5R,8R,9R,10S,13S,14S,17R)-3-hydroxy-3,13-dimethylhexadecahydro-1H-cyclopenta[a]phenanthren-17-yl)propyl)-1H-pyrazole-4-carbonitrile] and C[C@H](Cn1cc(C#N)cn1)[C@H]1CC[C@H]2[C@@H]3CC[C@@H]4C[C@](C)(O)CC[C@@H]4[C@H]3CC[C@]12C [Example 52, 1-((S)-2-((3R,5R,8R,9R,10S,13S,14S,17R)-3-hydroxy-3,13-dimethylhexadecahydro-1H-cyclopenta[a]phenanthren-17-yl)propyl)-1H-pyrazole-4-carbonitrile] cannot be ordered by pIC50: > 7.00 for the first, > 7.00 for the second.

First: COC[C@@]1(O)CC[C@H]2[C@@H](CC[C@@H]3[C@@H]2CC[C@]2(C)[C@@H]([C@H](C)Cn4nnc(C)n4)CC[C@@H]32)C1 [Example 54, (3R,5S,8R,9R,10S,13S,14S,17R)-3-(methoxymethyl)-13-methyl-17-((S)-1-(5-methyl-2H-tetrazol-2-yl)propan-2-yl)hexadecahydro-1H-cyclopenta[a]phenanthren-3-ol]
Second: COC[C@@]1(O)CC[C@H]2[C@@H](CC[C@@H]3[C@@H]2CC[C@]2(C)[C@@H]([C@@H](C)Cn4nnnc4C)CC[C@@H]32)C1 [Example 55, (3R,5S,8R,9R,10S,13S,14S,17R)-3-(methoxymethyl)-13-methyl-17-((R)-1-(5-methyl-1H-tetrazol-1-yl)propan-2-yl)hexadecahydro-1H-cyclopenta[a]phenanthren-3-ol]
The pIC50 of the first is lower: 6.00 to 7.00 for the first, > 7.00 for the second. The second is the more potent here.

COC[C@@]1(O)CC[C@H]2[C@@H](CC[C@@H]3[C@@H]2CC[C@]2(C)[C@@H]([C@H](C)Cn4nnnc4C)CC[C@@H]32)C1 [Example 56, (3R,5S,8R,9R,10S,13S,14S,17R)-3-(methoxymethyl)-13-methyl-17-((S)-1-(5-methyl-1H-tetrazol-1-yl)propan-2-yl)hexadecahydro-1H-cyclopenta[a]phenanthren-3-ol] and C[C@@H](Cn1ccnn1)[C@H]1CC[C@H]2[C@@H]3CC[C@H]4C[C@](C)(O)CC[C@@H]4[C@H]3CC[C@]12C [Example 59, (3R,5S,8R,9R,10S,13S,14S,17R)-17-((R)-1-(1H-1,2,3-triazol-1-yl)propan-2-yl)-3,13-dimethylhexadecahydro-1H-cyclopenta[a]phenanthren-3-ol] fall in the same range of pIC50: 6.00 to 7.00 for the first, 6.00 to 7.00 for the second.

First: C[C@@H](Cn1nccn1)[C@H]1CC[C@H]2[C@@H]3CC[C@H]4C[C@](C)(O)CC[C@@H]4[C@H]3CC[C@]12C [Example 57, (3R,5S,8R,9R,10S,13S,14S,17R)-17-((R)-1-(2H-1,2,3-triazol-2-yl)propan-2-yl)-3,13-dimethylhexadecahydro-1H-cyclopenta[a]phenanthren-3-ol]
Second: C[C@H](Cn1nccn1)[C@H]1CC[C@H]2[C@@H]3CC[C@H]4C[C@](C)(O)CC[C@@H]4[C@H]3CC[C@]12C [Example 58, (3R,5S,8R,9R,10S,13S,14S,17R)-17-((S)-1-(2H-1,2,3-triazol-2-yl)propan-2-yl)-3,13-dimethylhexadecahydro-1H-cyclopenta[a]phenanthren-3-ol]
The pIC50 of the first is higher: 6.00 to 7.00 for the first, 5.00 to 6.00 for the second. The first is the more potent here.

Compared with C[C@H](Cn1ccnn1)[C@H]1CC[C@H]2[C@@H]3CC[C@H]4C[C@](C)(O)CC[C@@H]4[C@H]3CC[C@]12C [Example 60, (3R,5S,8R,9R,10S,13S,14S,17R)-17-((S)-1-(1H-1,2,3-triazol-1-yl)propan-2-yl)-3,13-dimethylhexadecahydro-1H-cyclopenta[a]phenanthren-3-ol], CCC[C@@]1(O)CC[C@H]2[C@H](CC[C@@H]3[C@@H]2CC[C@]2(C)[C@@H]([C@H](C)Cn4cc(C#N)cn4)CC[C@@H]32)C1 [Example 66, 1-((S)-2-((3R,5R,8R,9R,10S,13S,14S,17R)-3-hydroxy-13-methyl-3-propylhexadecahydro-1H-cyclopenta[a]phenanthren-17-yl)propyl)-1H-pyrazole-4-carbonitrile] is higher in pIC50: 6.00 to 7.00 for the first, > 7.00 for the second. The second is the more potent here.

CC[C@@]1(O)CC[C@@]2(C)[C@H](CC[C@@H]3[C@@H]2CC[C@]2(C)[C@@H]([C@H](C)Cn4ccc(C#N)n4)CC[C@@H]32)C1 [Example 62, 1-((S)-2-((3R,5R,8R,9S,10S,13S,14S,17R)-3-ethyl-3-hydroxy-10,13-dimethylhexadecahydro-1H-cyclopenta[a]phenanthren-17-yl)propyl)-1H-pyrazole-3-carbonitrile] and CC[C@@]1(O)CC[C@@]2(C)[C@H](CC[C@@H]3[C@@H]2CC[C@]2(C)[C@@H]([C@@H](C)Cn4nccc4C#N)CC[C@@H]32)C1 [Example 63, 1-((R)-2-((3R,5R,8R,9S,10S,13S,14S,17R)-3-ethyl-3-hydroxy-10,13-dimethylhexadecahydro-1H-cyclopenta[a]phenanthren-17-yl)propyl)-1H-pyrazole-5-carbonitrile] cannot be ordered by pIC50: > 7.00 for the first, > 7.00 for the second.

CC[C@@]1(O)CC[C@@]2(C)[C@H](CC[C@@H]3[C@@H]2CC[C@]2(C)[C@@H]([C@H](C)Cn4nccc4C#N)CC[C@@H]32)C1 [Example 64, 1-((S)-2-((3R,5R,8R,9S,10S,13S,14S,17R)-3-ethyl-3-hydroxy-10,13-dimethylhexadecahydro-1H-cyclopenta[a]phenanthren-17-yl)propyl)-1H-pyrazole-5-carbonitrile] and CCOC[C@@]1(O)CC[C@H]2[C@H](CC[C@@H]3[C@@H]2CC[C@]2(C)[C@@H]([C@@H](C)NS(=O)(=O)c4ccc(C#N)cn4)CC[C@@H]32)C1 [Example 73] cannot be ordered by pIC50: > 7.00 for the first, > 7.00 for the second.

CCOC[C@@]1(O)CC[C@H]2[C@H](CC[C@@H]3[C@@H]2CC[C@]2(C)[C@@H]([C@@H](C)NS(=O)(=O)c4ccc(C#N)cc4)CC[C@@H]32)C1 [Example 67, 4-cyano-N—((R)-1-((3R,5R,8R,9R,10S,13S,14S,17S)-3-(ethoxymethyl)-3-hydroxy-13-methylhexadecahydro-1H-cyclopenta[a]phenanthren-17-yl)ethyl)benzenesulfonamide] and CCOC[C@@]1(O)CC[C@H]2[C@H](CC[C@@H]3[C@@H]2CC[C@]2(C)[C@@H]([C@@H](C)NS(=O)(=O)c4cccc(C#N)c4)CC[C@@H]32)C1 [Example 69] cannot be ordered by pIC50: > 7.00 for the first, > 7.00 for the second.

CCOC[C@@]1(O)CC[C@H]2[C@H](CC[C@@H]3[C@@H]2CC[C@]2(C)[C@@H]([C@@H](C)N(C)S(=O)(=O)c4ccc(C#N)cc4)CC[C@@H]32)C1 [Example 68, 4-cyano-N—((R)-1-((3R,5R,8R,9R,10S,13S,14S,17S)-3-(ethoxymethyl)-3-hydroxy-13-methylhexadecahydro-1H-cyclopenta[a]phenanthren-17-yl)ethyl)-N-methylbenzenesulfonamide] and CCOC[C@@]1(O)CC[C@H]2[C@H](CC[C@@H]3[C@@H]2CC[C@]2(C)[C@@H]([C@@H](C)N(C)S(=O)(=O)c4cccc(C#N)c4)CC[C@@H]32)C1 [Example 70] cannot be ordered by pIC50: > 7.00 for the first, > 7.00 for the second.

CCOC[C@@]1(O)CC[C@H]2[C@H](CC[C@@H]3[C@@H]2CC[C@]2(C)[C@@H]([C@@H](C)NS(=O)(=O)c4cccc(C#N)n4)CC[C@@H]32)C1 [Example 71] showed a pIC50 of 6.00 to 7.00.
